Laboratory results from patent US20230310573A1, “Stabilized Vaccine Compositions” (priority 2020, published 2023).
Where two headings read alike, the source gives them in different places.

Legend:
Type in all cases: physicochemical
[1] = target: T1, RSV pre-fusion F protein of SEQ ID NO: 10 (Human respiratory syncytial virus A, UniProt P03420, D486N/DEL108-136/I379V/M447V/N67I/P102A/S215P); conditions: phosphate buffer (Formulation 1), preF 0.3 mg/ml, 1:3 trimer:compound, RT to −70° C. in 24 hours
T1 construct: made in house
Method: The RSV pre-fusion F protein of SEQ ID NO: 10 was diluted to 0.3 mg/ml in phosphate buffer (Formulation 1) and 0.75 ml was filled in glass injection vials with rubber stopper and sealed with aluminum caps. Additionally, protein was diluted in the formulation buffers with inhibitor in a 1:3 trimer:compound ratio. One inhibitor binds one trimer so with a 1:3 ratio there is an excess of inhibitor. […] In 24 hours, samples were cooled down from RT to −70° C. Samples were thawed to RT and analyzed by analytical Size Exclusion Chromatography (SEC) to measure loss of RSV F trimer.
0.75 ml of each formulation was filled in glass injection vials with rubber stopper and sealed with aluminum caps. Additionally, protein was diluted in the formulation buffers and inhibitor was added in a 1:1, 1:3, 1:9, 1:27 and 1:50 trimer: compound ratio. Final compound concentrations were 1.7×10^−6 M, 5.2×10^−6 M, 1.6×10^−5M, 4.6×10^−5, and 8.6×10^−5 M, respectively. Vials were slowly frozen to −70° C. in 24 hours. Samples were subsequently thawed to RT and analyzed by analytical Size Exclusion Chromatography (SEC) to measure loss of RSV F trimer compared the sample that was kept at 4° C.

[2] = target: T2, RSV pre-fusion F (preF) protein of SEQ ID NO: 10 (Human respiratory syncytial virus A, UniProt P03420, D486N/DEL108-136/I379V/M447V/N67I/P102A/S215P)
T2 construct: made in house

[3] = target: T2, RSV pre-fusion F (preF) protein of SEQ ID NO: 10; assay: Dialysis and slow freezing, trimer by analytical SEC
Method: (§1) Vials were frozen to −70° C. in 24 hours under controlled conditions. Samples were subsequently thawed to RT and analyzed by analytical Size Exclusion Chromatography (SEC) to measure loss of RSV F trimer compared the sample that was kept at 4° C. In addition, the dialyzed materials with and without stabilizing compound III were evaluated in DSF to measure the melting temperature. For experimental details see example 2.

[4] = target: T2, RSV pre-fusion F (preF) protein of SEQ ID NO: 10; assay: UF/DF buffer exchange and slow freezing, aggregation by analytical SEC; conditions: for aggregation after buffer exchange and slow freezing: 1:50
Method: Buffer exchange of samples with and without stabilizing compound III was performed by ultrafiltration/diafiltration (UF/DF), using a Cogent μScale TFF system (Merck). […] Stabilizing compound III was preincubated with the sample and in one case also added to the buffer used for the UF/DF (see FIG. 12 labeled 1:3 & In Buffer). Runs were performed using Pelicon XL Biomax 50 cm2 filter cassettes. For each run, the system was flushed with MilliQ water at a crossflow of 30-50 mL/min, then the system was cleaned with NaOH 0.1M (recirculated for at least 5 min.) After this, the system was flushed again with MilliQ water until a pH of 7 was reached, followed by a 5 min. flush of the system with the desired buffer. Subsequently, the protein (50 mL) was added to the system for diafiltration against 7 diavolumes (350 mL) of the desired buffer.
as §1, with “Each formulation (pre and post UF/DF samples) was diluted to 0.3 mg/ml. 0.75 ml of each formulation was filled in glass injection vials with rubber stopper and sealed with aluminum caps. Vials” for “Vials”, “different formulations” for “dialyzed materials”
Stabilizing compound III was added in a 1:50 trimer:compound ratio before the UD/DF and incubated for 24 hours at […] The excess of unbound stabilizing compound III is removed during the UF/DF process.
Each formulation (pre and post dialysis samples) was diluted to 0.3 mg/ml. 0.75 ml of each formulation was filled in glass injection vials with rubber stopper and sealed with aluminum caps. Vials were slowly frozen to −70° C. in 24 hours. Samples were subsequently thawed to RT and analyzed by analytical Size Exclusion Chromatography (SEC) to measure loss of RSV F trimer compared the sample that was kept at 4° C. In addition, the different formulations with and without compound III were evaluated in DSF to measure the melting temperature. For experimental details see example 2.

## CS(=O)(=O)CCCn1c(Cn2c(=O)n(C3CC3)c3ccncc32)nc2cc(Br)ccc21 [Compound III, 3-[[5-bromo-1-(3-methylsulfonylpropyl)benzimidazol-2-yl]methyl]-1-cyclopropyl-imidazo[4,5-c]pyridin-2-one]
[1]
  trimer signal lost after slow freeze/thaw (analytical SEC): 2.0+/−2.0%
[2]; 6 weeks at 37° C., AP1, formulation 1, formulation 5a, trimer:compound 1:3 and 1:9
  trimer content after heat stress (SEC): trimer content was not changed compared to the control
[2]; 6 weeks at 47° C., AP1, formulation 1, formulation 5a, trimer:compound 1:3 and 1:9
  aggregation after heat stress (SEC): aggregation was higher for the samples without compound compared to the samples with compound
[2]; 37° C., up to 26 weeks, different buffers, 1:3 or 1:9
  formation of protein aggregates in liquid phase (SEC trimer content vs 4° C. control): protects from the formation of protein aggregates
[2]; 37° C., up to 26 weeks, higher ratios (1:9)
  protection from aggregation over time, by ratio: best protection from aggregation over time
[2]; AP1, 9, 16 or 26 weeks
  protection from aggregation at 37° C.: did not show protection from aggregation
[2]; Formulation 1, 9, 16 or 26 weeks
  trimer content at 37° C.: improved the trimer content
[2]; Formulation 5a and FB12, 9, 16 or 26 weeks
  trimer content at 37° C.: always improved the trimer content
[3]; 1:3 and 1:30 trimer:compound
  trimer after dialysis and slow freezing: higher than 90%
[3]; pre- and post-dialysis samples, 1:3 and 1:30
  aggregation after slow freezing: protected from aggregation
[4]; 1:50 trimer:compound before UF/DF, irrespective of the buffer
  aggregation after buffer exchange and subsequent slow freezing: protected from aggregation
[4]; AP1 buffer
  aggregation after buffer exchange and slow freezing: did not provide enough protections against aggregation
[4]; Formulation 1 without PS20
  aggregation after buffer exchange and slow freezing: provided protection against aggregation
[4]; Formulation buffer 6, irrespective of compound concentration
  aggregation after UF/DF and slow freezing: protected from aggregation
